Reference: the supplement of paper PMC10307832

Key:
Assay in all cases: relative viability (nuclei count vs DMSO), 5 days (fraction); higher = more cells survive
A549 = tested on: A549
Summary of the method: (§1)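 Relative viability equals treated-well nuclei counts divided by vehicle-well nuclei counts. Counts came from 4× images of lung cancer cell lines grown in 1536-well plates for 5 days after pin-tool dosing on the day after seeding. Dosing used one drug alone or a fixed anchor-drug dose plus five library-drug doses (not always all listed) in √10 steps, and values are medians of duplicate plates.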

Calu-6 = tested on: Calu-6
Summary of the method: as §1

EBC-1 = tested on: EBC-1
Summary of the method: as §1

EKVX = tested on: EKVX
Summary of the method: as §1

HCC-15 = tested on: HCC-15
Summary of the method: as §1

HCC-44 = tested on: HCC-44
Summary of the method: as §1

IA-LM = tested on: IA-LM
Summary of the method: as §1

NCI-H1299 = tested on: NCI-H1299
Summary of the method: as §1

NCI-H1395 = tested on: NCI-H1395
Summary of the method: as §1

NCI-H1703 = tested on: NCI-H1703
Summary of the method: as §1

NCI-H1755 = tested on: NCI-H1755
Summary of the method: as §1

UMC-11 = tested on: UMC-11
Summary of the method: as §1

Nc1ccn([C@@H]2O[C@H](CO)[C@@H](O)[C@@H]2O)c(=O)n1 [Cytarabine] + CS(=O)(=O)CCNCc1ccc(-c2ccc3ncnc(Nc4ccc(OCc5cccc(F)c5)c(Cl)c4)c3c2)o1 [Lapatinib] (partner 2 µM)
relative viability (A549; first compound 0.005 µM): 0.835
relative viability (A549; first compound 0.01581 µM): 0.648
relative viability (A549; first compound 0.05 µM): 0.569
relative viability (A549; first compound 0.1581 µM): 0.148
relative viability (A549; first compound 0.5 µM): 0.0593
relative viability (Calu-6; first compound 0.005 µM): 0.903
relative viability (Calu-6; first compound 0.01581 µM): 0.856
relative viability (Calu-6; first compound 0.05 µM): 0.921
relative viability (Calu-6; first compound 0.1581 µM): 0.512
relative viability (Calu-6; first compound 0.5 µM): 0.341
relative viability (EBC-1; first compound 0.01581 µM): 0.22
relative viability (EBC-1; first compound 0.05 µM): 0.185
relative viability (EBC-1; first compound 0.1581 µM): 0.152
relative viability (EBC-1; first compound 0.5 µM): 0.208
relative viability (EKVX; first compound 0.005 µM): 0.225
relative viability (EKVX; first compound 0.01581 µM): 0.18
relative viability (EKVX; first compound 0.05 µM): 0.153
relative viability (EKVX; first compound 0.1581 µM): 0.138
relative viability (EKVX; first compound 0.5 µM): 0.112
relative viability (HCC-15; first compound 0.005 µM): 0.785
relative viability (HCC-15; first compound 0.01581 µM): 0.887
relative viability (HCC-15; first compound 0.05 µM): 0.693
relative viability (HCC-15; first compound 0.1581 µM): 0.615
relative viability (HCC-15; first compound 0.5 µM): 0.639
relative viability (HCC-44; first compound 0.005 µM): 0.93
relative viability (HCC-44; first compound 0.01581 µM): 0.935
relative viability (HCC-44; first compound 0.05 µM): 0.984
relative viability (HCC-44; first compound 0.1581 µM): 0.532
relative viability (HCC-44; first compound 0.5 µM): 0.431
relative viability (IA-LM; first compound 0.005 µM): 0.85
relative viability (IA-LM; first compound 0.01581 µM): 0.729
relative viability (IA-LM; first compound 0.05 µM): 0.588
relative viability (IA-LM; first compound 0.1581 µM): 0.297
relative viability (IA-LM; first compound 0.5 µM): 0.175
relative viability (NCI-H1299; first compound 0.005 µM): 0.976
relative viability (NCI-H1299; first compound 0.01581 µM): 0.979
relative viability (NCI-H1299; first compound 0.05 µM): 1.07
relative viability (NCI-H1299; first compound 0.1581 µM): 0.987
relative viability (NCI-H1299; first compound 0.5 µM): 0.95
relative viability (NCI-H1395; first compound 0.005 µM): 0.935
relative viability (NCI-H1395; first compound 0.01581 µM): 0.749
relative viability (NCI-H1395; first compound 0.05 µM): 0.581
relative viability (NCI-H1395; first compound 0.1581 µM): 0.461
relative viability (NCI-H1395; first compound 0.5 µM): 0.355
relative viability (NCI-H1703; first compound 0.005 µM): 0.776
relative viability (NCI-H1703; first compound 0.01581 µM): 0.388
relative viability (NCI-H1703; first compound 0.05 µM): 0.286
relative viability (NCI-H1703; first compound 0.1581 µM): 0.16
relative viability (NCI-H1703; first compound 0.5 µM): 0.194
relative viability (NCI-H1755; first compound 0.005 µM): 0.759
relative viability (NCI-H1755; first compound 0.01581 µM): 0.973
relative viability (NCI-H1755; first compound 0.05 µM): 0.8
relative viability (NCI-H1755; first compound 0.1581 µM): 0.259
relative viability (NCI-H1755; first compound 0.5 µM): 0.271
relative viability (UMC-11; first compound 0.005 µM): 0.632
relative viability (UMC-11; first compound 0.01581 µM): 0.462
relative viability (UMC-11; first compound 0.05 µM): 0.434
relative viability (UMC-11; first compound 0.1581 µM): 0.193
relative viability (UMC-11; first compound 0.5 µM): 0.211

CC(=O)O[C@@]12CO[C@@H]1C[C@H](O)[C@@]1(C)C(=O)[C@H](O)C3=C(C)[C@@H](OC(=O)[C@H](O)[C@@H](NC(=O)OC(C)(C)C)c4ccccc4)C[C@@](O)([C@@H](OC(=O)c4ccccc4)[C@H]21)C3(C)C [Docetaxel] + CC1(C)CCC(c2ccc(Cl)cc2)=C(CN2CCN(c3ccc(C(=O)NS(=O)(=O)c4ccc(N[C@H](CCN5CCOCC5)CSc5ccccc5)c(S(=O)(=O)C(F)(F)F)c4)cc3)CC2)C1 [Navitoclax] (partner 0.5 µM)
relative viability (A549; first compound 0.0002 µM): 0.985
relative viability (A549; first compound 0.000632 µM): 0.245
relative viability (A549; first compound 0.002 µM): 0.055
relative viability (A549; first compound 0.006325 µM): 0.0522
relative viability (A549; first compound 0.02 µM): 0.0365
relative viability (Calu-6; first compound 0.0002 µM): 1.02
relative viability (Calu-6; first compound 0.000632 µM): 0.707
relative viability (Calu-6; first compound 0.002 µM): 0.111
relative viability (Calu-6; first compound 0.006325 µM): 0.0836
relative viability (Calu-6; first compound 0.02 µM): 0.0609
relative viability (EBC-1; first compound 0.0002 µM): 0.259
relative viability (EBC-1; first compound 0.000632 µM): 0.27
relative viability (EBC-1; first compound 0.002 µM): 0.152
relative viability (EBC-1; first compound 0.006325 µM): 0.206
relative viability (EBC-1; first compound 0.02 µM): 0.124
relative viability (EKVX; first compound 0.0002 µM): 0.918
relative viability (EKVX; first compound 0.000632 µM): 0.847
relative viability (EKVX; first compound 0.002 µM): 0.37
relative viability (EKVX; first compound 0.006325 µM): 0.196
relative viability (EKVX; first compound 0.02 µM): 0.123
relative viability (HCC-15; first compound 0.0002 µM): 0.636
relative viability (HCC-15; first compound 0.000632 µM): 0.372
relative viability (HCC-15; first compound 0.002 µM): 0.221
relative viability (HCC-15; first compound 0.006325 µM): 0.161
relative viability (HCC-15; first compound 0.02 µM): 0.0988
relative viability (HCC-44; first compound 0.0002 µM): 0.962
relative viability (HCC-44; first compound 0.000632 µM): 0.934
relative viability (HCC-44; first compound 0.002 µM): 0.362
relative viability (HCC-44; first compound 0.006325 µM): 0.242
relative viability (HCC-44; first compound 0.02 µM): 0.149
relative viability (IA-LM; first compound 0.0002 µM): 0.506
relative viability (IA-LM; first compound 0.000632 µM): 0.172
relative viability (IA-LM; first compound 0.002 µM): 0.0734
relative viability (IA-LM; first compound 0.006325 µM): 0.0267
relative viability (IA-LM; first compound 0.02 µM): 0.024
relative viability (NCI-H1299; first compound 0.0002 µM): 1.05
relative viability (NCI-H1299; first compound 0.000632 µM): 1.03
relative viability (NCI-H1299; first compound 0.002 µM): 0.938
relative viability (NCI-H1299; first compound 0.006325 µM): 0.526
relative viability (NCI-H1299; first compound 0.02 µM): 0.351
relative viability (NCI-H1395; first compound 0.0002 µM): 1.15
relative viability (NCI-H1395; first compound 0.000632 µM): 1.1
relative viability (NCI-H1395; first compound 0.002 µM): 0.895
relative viability (NCI-H1395; first compound 0.006325 µM): 0.394
relative viability (NCI-H1395; first compound 0.02 µM): 0.357
relative viability (NCI-H1703; first compound 0.0002 µM): 1.07
relative viability (NCI-H1703; first compound 0.000632 µM): 0.551
relative viability (NCI-H1703; first compound 0.006325 µM): 0.129
relative viability (NCI-H1703; first compound 0.02 µM): 0.108
relative viability (NCI-H1755; first compound 0.0002 µM): 0.982
relative viability (NCI-H1755; first compound 0.000632 µM): 0.98
relative viability (NCI-H1755; first compound 0.002 µM): 0.401
relative viability (NCI-H1755; first compound 0.006325 µM): 0.232
relative viability (NCI-H1755; first compound 0.02 µM): 0.136
relative viability (UMC-11; first compound 0.0002 µM): 0.314
relative viability (UMC-11; first compound 0.000632 µM): 0.271
relative viability (UMC-11; first compound 0.002 µM): 0.155
relative viability (UMC-11; first compound 0.006325 µM): 0.131
relative viability (UMC-11; first compound 0.02 µM): 0.105
